Experimental findings from ChEMBL document CHEMBL5046324, “Small-Molecule Inhibitor of the Oncogenic KRASG12C Mutant for the Treatment of Currently Incurable Cancer” (ACS Med Chem Lett, 2022) are described below.

The target of assay [1] is T1, GTPase KRas (Homo sapiens, UniProt P01116, G12C). In words: Inhibition of KRAS G12C mutant (2 to 188 residues) (unknown origin) expressed in Escherichia coli assessed as inhibition of SOS mediated nucleotide exchange at 4 degreeC for 18 hrs by HTRF assay. Background: Time-resolved FRET reads energy transfer from a long-lived donor to a nearby acceptor.
For assay [2], the target named is T1, GTPase KRas. Briefly: Inhibition of KRAS G12C mutant (2 to 188 residues) (unknown origin) expressed in Escherichia coli assessed as inhibition of SOS mediated nucleotide exchange at 21 degreeC for 15 mins by HTRF assay.
Assay [3] has as its target T1, GTPase KRas. In words: Inhibition of KRAS G12C mutant in human HCC1171 cells assessed as effect on cell alkylation measured after 18 hrs by western blot analysis. The class given is cell-based. Background: A western blot detects proteins with antibodies after separation by electrophoresis.
The target in assay [4] is T1, GTPase KRas. Briefly: Inhibition of KRAS G12C mutant (2 to 188 residues) (unknown origin) expressed in Escherichia coli assessed as inhibition of SOS mediated nucleotide exchange measured after 18 hrs by HTRF assay.

Each structure is given as a SMILES string. A value given as a limit tells only on which side of the number the result lay.

For `C=CC(=O)N1CCN(c2nc(OC[C@@H]3CCCN3C)nc3c2CC[C@]2(CCc4ccccc4C2)C3)C[C@@H]1CC#N`, the IC50 on GTPase KRas [1] turned out to be 60 nM; on GTPase KRas [2] it was 131 nM.
`C=CC(=O)N1CCN(c2nc(OC[C@@H]3CCCN3C)nc3c2C[C@@H](C)[C@H](c2cc(O)cc4ccccc24)C3)[C@@H](C)C1`: the EC50 at GTPase KRas [3] was less than 6.1 nM.
Consider `C=CC(=O)N1CCN(c2nc(OCc3cn(C)cn3)nc3c2CC[C@H](c2cc(O)cc4ccccc24)C3)[C@@H](C)C1`, for which the IC50 on GTPase KRas [4] is 470 nM. Also, the EC50 at GTPase KRas [3] was determined as 3000 nM.
Regarding `C=CC(=O)N1CCN(c2nc(OC[C@@H]3CCCN3C)nc3c2CC[C@@]2(CCc4ccccc4C2)C3)C[C@@H]1CC#N`, the results for the IC50 on GTPase KRas [1] and at GTPase KRas [2] were 51 nM and 291 nM, respectively.
For the compound `C=CC(=O)N1CCN(c2nc(OC[C@@H]3C[C@H](F)CN3C)nc3c2C[C@@H](C)[C@H](c2cc(O)cc4ccccc24)C3)[C@@H](C)C1`, the IC50 at GTPase KRas [4] was determined as 11 nM. Besides, the EC50 on GTPase KRas [3] was determined as 40 nM.
Turning to `C=CC(=O)N1CCN(c2nc(OC[C@@H]3CCCN3C)nc3c2CCC2(CCc4ccccc4C2)C3)C[C@@H]1CC#N` (stereo partly specified), the IC50 at GTPase KRas [1] was found to be 46 nM; at GTPase KRas [2], 142 nM.

One may read the IC50 as the concentration that gives 50% inhibition. As usually defined, the EC50 is the concentration giving half of the maximal effect.
